Consider two compounds from US6551605B2, “Diesters or polyesters of naphthalene dicarboxylic acid as solubilizer/stabilizer for retinoids” (Haarmann & Reimer, priority 2001, dated 2003).

≈ marks a conversion by molar mass, not a printed value.

Data set [1] concerns skin. The settings on record: topical, 0.1% versus 0.025%; cited from earlier work.
Data set [2] has as its system skin. As to conditions: topical, 0.1% versus 0.025%; cited from earlier work. The source holds these as a separate data set.
Data set [3] in a line: Solubility of retinoids in diethylhexyl 2,6-naphthalate (HallBrite TQ). The format is physicochemical. As to conditions: organic solvent or mixture, read-out: solubility in diethylhexyl diester of 2,6-naphthalene-dicarboxylic acid. On the procedure:
Retinoids are lipophilic. […] For example, isotretinoin is soluble in the diethylhexyl diester of 2,6-naphthalene-dicarboxylic acid (diethylhexyl 2,6-naphthalate, HallBrite TQ, C. P. Hall) at approximately 6.7 mg/ml, and tretinoin is soluble in the same diester at approximately 5.6 mg/ml.

For data set [4] the following is noted: cited from earlier work.
The conditions of data set [5]: cited from earlier work. The source holds these as a separate data set.

For the compound `CC1=C(/C=C/C(C)=C/C=C/C(C)=C\C(=O)O)C(C)(C)CCC1` [isotretinoin, 13-cis-retinoic acid], the degree of irritation result with skin [1] is “more irritating”. The therapeutic effectiveness entry in the data set on skin [2] is “more effective”. Moreover, the solubility (usually the concentration that dissolves in the medium under given conditions) in data set [3] was approximately 6700 µg/mL (≈ 22.3 mM).

`CC1=C(/C=C/C(C)=C/C=C/C(C)=C/C(=O)O)C(C)(C)CCC1` [tretinoin, all-trans-retinoic acid]: the “stability of aqueous solutions” value in data set [4] (aqueous solutions) is given as “deteriorate quickly”. Besides, the “stability of solutions in pure organic solvents” value in data set [4] (pure organic solvents, stored in the dark) was “stable”. In data set [5] (chloroform), the solubility in chloroform entry is “slightly soluble”. Also, in data set [5] (dimethyl sulfoxide), the “solubility in dimethyl sulfoxide” value is 40000 µg/mL (≈ 133 mM). Moreover, the solubility in ether entry in data set [5] (ether) is “sparingly soluble”. In addition, in data set [5] (methylene chloride), the “solubility in methylene chloride” value is on record as “soluble”. Moreover, the solubility in water result in data set [5] (water) is recorded as “practically insoluble”. Further, in data set [3], the solubility is approximately 5600 µg/mL (≈ 18.6 mM).
